Format in all cases: cell-based
Assay [1] has as its system Staphylococcus aureus (ATCC25923). Description: Antimicrobial activity of coating formulation films containing biocidal microcapsules. Here is the method: (§1) Bioassays were performed to assess the antimicrobial activity against Staphylococcus aureus (ATCC 25923) by the Well diffusion method, at different mediums (artificial sea water (Sera marine salt), DMSO and MilliQ water). Initially, the microorganisms were cultured on Muller-Hinton agar for bacteria Staphylococcus aureus. Then, 100 μL of a standardized microorganism suspension, corresponding to 0.5 McFarland, was used to inoculate a Petri dish of solid Mueller-Hinton medium. These suspensions were spread over the medium surface using a sterile swab. Subsequently, agar wells were made of approximately 5.0 mm in diameter with a Pasteur pipette. Then, 50 μL of each sample, negative control (DMSO) and positive control (Econea) for Gram positive bacteria (Staphylococcus aureus), were added on each of the wells. Plates were incubated at 37° C. for 24 hours. After this period, the diameters of the inhibition zones were measured and the results were expressed in millimeters (mm). The assay was performed under aseptic conditions and in triplicate [M. Pereira, D. Matias, F. Pereira, C. P. Reis, M. F. Simões, P. Rijo, Antimicrobial screening of Plectranthus madagascariensis and P. neochilus extracts, Biomedical and Biopharmaceutical Research, Vol. 12 (2015) 127-138]. […]

Assay [2] has the same test system. The assay can be described thus: Leaching tests on coated specimens (adapted OECD 313-2007), leaching waters assessed by bioassay. The following applies: after 30 days of exposure in artificial sea water, 120 rpm. Here is the method:
as §1, with “(mm).” for “(mm). The assay was performed under aseptic conditions and in triplicate [M. Pereira, D. Matias, F. Pereira, C. P. Reis, M. F. Simões, P. Rijo, Antimicrobial screening of Plectranthus madagascariensis and P. neochilus extracts, Biomedical and Biopharmaceutical Research, Vol. 12 (2015) 127-138].”
Leaching of the biocide through the paint films of coated specimens containing the developed biocidal MCs was assessed by leaching tests, following an adapted procedure from the standard OECD 313-2007. […] Finally, the antimicrobial activity of the leaching waters was assessed by bioassays against microorganisms such as Staphylococcus aureus, following the same procedure as described in the previous examples.

For assay [3], the system named is Staphylococcus aureus (ATCC 25923). Description: Well diffusion antimicrobial bioassay of microcapsules. Conditions: wells approx. 5.0 mm, 37° C. 24 hours. The method, then: Bioassays were performed to assess the antimicrobial activity against Staphylococcus aureus (ATCC 25923) by the Well diffusion method, at different mediums (artificial sea water (Sera marine salt), DMSO and MilliQ water). Initially, the microorganisms were cultured on Muller-Hinton agar for bacteria Staphylococcus aureus. Then, 100 μL of a standardized microorganism suspension, corresponding to 0.5 McFarland, was used to inoculate a Petri dish of solid Mueller-Hinton medium. These suspensions were spread over the medium surface using a sterile swab. Subsequently, agar wells were made of approximately 5.0 mm in diameter with a Pasteur pipette. Then, 50 μL of each sample, negative control (DMSO) and positive control (Econea) for Gram positive bacteria (Staphylococcus aureus), were added on each of the wells. Plates were incubated at 37° C. for 24 hours. After this period, the diameters of the inhibition zones were measured and the results were expressed in millimeters (mm). The assay was performed under aseptic conditions and in triplicate [M. Pereira, D. Matias, F. Pereira, C. P. Reis, M. F. Simões, P. Rijo, Antimicrobial screening of Plectranthus madagascariensis and P. neochilus extracts, Biomedical and Biopharmaceutical Research, Vol. 12 (2015) 127-138]. Following the above described procedure, different mediums were used to assess the bioactivity of microcapsules, such as artificial sea water, MilliQ water and dimethyl sulfoxide (DMSO) (Table 1).
Following similar bioassays procedures as example 1, different mediums were used to assess the bioactivity of microcapsules, such as artificial sea water, MilliQ water and dimethyl sulfoxide (DMSO) (Table 3).
On the technique in general: Agar diffusion results depend on both activity and mobility in agar.

SMILES strings stand for the structures.

Take `N#Cc1c(-c2ccc(Cl)cc2)[nH]c(C(F)(F)F)c1Br` [Econea biocide, 2-(p-chlorophenyl)-3-cyano-4-bromo-5-trifluoromethyl pyrrole]: the “Inhibition zones of polyurethane based coating formulations” value is reported as 20 mm in assay [1] (medium DMSO) and 18 mm in assay [1] (medium artificial sea water). For the same compound, the “Inhibition zones of leaching waters of immersed coated specimens” value in assay [2] is recorded as 20 mm. Moreover, the Inhibition zones is reported as 19 mm in assay [3] (medium DMSO), 23 mm in assay [3] (medium MilliQ water) and 20 mm in assay [3] (medium artificial sea water).

For the origin of these results see patent US20200029558A1, “Biocidal Microcapsules for Biofouling Control” (Greenseal Research Ltd, priority 2016, published 2020).
